Usually IC50 stands for the concentration that inhibits the measured activity by half.

The results in this text go back to US20260007684A1, “AMIDE DERIVATIVES FOR INHIBITING NLRP3 AND USES THEREOF” (Ventus Therapeutics U.S., Inc., priority 2023, published 2026).

Some results are limits rather than exact numbers.

The target of one experiment is human NLRP3 (Homo sapiens (Human), UniProt Q96P20). The experiment in a line: Scintillation Proximity (SPA) NLRP3 Assay: displacement of 3H-MCC950. The experiment is classed as binding. Conditions: displacement of 3H-MCC950; read-out: SPA IC50. In general terms: Scintillation proximity formats need no separation of bound from free tracer.
Chain of human NLRP3 (Q96P20 whole entry): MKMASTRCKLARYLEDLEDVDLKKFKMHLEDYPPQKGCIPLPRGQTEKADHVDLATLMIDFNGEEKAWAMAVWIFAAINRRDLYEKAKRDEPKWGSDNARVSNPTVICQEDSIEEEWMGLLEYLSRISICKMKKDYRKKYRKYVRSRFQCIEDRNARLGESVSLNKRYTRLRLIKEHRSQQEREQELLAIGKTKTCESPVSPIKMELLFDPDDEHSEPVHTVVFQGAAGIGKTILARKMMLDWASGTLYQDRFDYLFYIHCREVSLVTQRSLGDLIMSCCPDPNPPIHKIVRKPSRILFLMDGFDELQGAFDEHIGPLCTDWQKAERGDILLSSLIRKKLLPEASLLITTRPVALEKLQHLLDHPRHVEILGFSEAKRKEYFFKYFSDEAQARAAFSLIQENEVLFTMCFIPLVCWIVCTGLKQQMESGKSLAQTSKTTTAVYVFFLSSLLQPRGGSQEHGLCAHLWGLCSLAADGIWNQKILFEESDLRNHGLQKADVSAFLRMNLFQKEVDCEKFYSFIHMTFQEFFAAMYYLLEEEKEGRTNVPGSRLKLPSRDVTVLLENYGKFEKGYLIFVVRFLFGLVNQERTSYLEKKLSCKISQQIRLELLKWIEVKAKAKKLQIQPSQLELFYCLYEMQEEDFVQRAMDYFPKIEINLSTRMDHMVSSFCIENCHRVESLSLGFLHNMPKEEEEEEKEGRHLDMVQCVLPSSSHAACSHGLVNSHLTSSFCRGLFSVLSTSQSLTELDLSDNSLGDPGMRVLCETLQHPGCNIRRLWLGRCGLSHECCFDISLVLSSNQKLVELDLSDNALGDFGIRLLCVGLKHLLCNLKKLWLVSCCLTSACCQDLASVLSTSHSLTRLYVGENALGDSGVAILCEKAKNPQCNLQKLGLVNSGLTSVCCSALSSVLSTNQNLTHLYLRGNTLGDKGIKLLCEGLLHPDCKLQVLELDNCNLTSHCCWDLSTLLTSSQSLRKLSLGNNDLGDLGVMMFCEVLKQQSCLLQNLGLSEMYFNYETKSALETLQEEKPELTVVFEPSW
On to `Cc1ccc(C2(C(=O)N[C@H]3C[C@@H](C)CCN(c4nnn[nH]4)C3)CC2)c(O)c1F` (single isomer, unassigned) [74D*], for which the IC50 is 1 to 10 µM.

On to `COc1cc(F)c(C2(C(=O)N[C@H]3C[C@H](C)[C@H]4CC[C@@H]3N4c3nnn[nH]3)CC2)c(F)c1` (single isomer, unassigned) [102D*], for which the IC50 was in the range of 10 to 50 µM.

`O=C(NC1CC(C2CC2)CN(c2nnn[nH]2)C1)C1(c2ccc(Cl)cc2)CC1` (single isomer, unassigned) [Rac-13A*/D*, 1-(4-chlorophenyl)-N-(5-cyclopropyl-1-(1H-tetrazol-5-yl)piperidin-3-yl)cyclopropane-1-carboxamide]: the IC50 lay in the range of 1 to 10 µM.

Consider `C[C@H]1CCN(c2nnn[nH]2)C[C@@H](NC(=O)C2(c3ccc(OC(F)F)c(F)c3)CC2)C1` (single isomer, unassigned) [73D*], for which the IC50 fell in the range of 1 to 10 µM.

Turning to `Cc1ccc(C2(C(=O)N[C@H]3C[C@@H](C)CCN(c4nnn[nH]4)C3)CC2)c(O)c1F` (single isomer, unassigned) [22D*, 1-(3-fluoro-2-hydroxy-4-methylphenyl)-N-(5-methyl-1-(1H-tetrazol-5-yl)azepan-3-yl)cyclopropane-1-carboxamide], the IC50 was 1 to 10 µM.

In the case of `C[C@@H]1CCN(c2nnn[nH]2)C[C@@H](NC(=O)C2(c3c(F)cc(Cl)cc3F)CC2)C1` (single isomer, unassigned) [72B*], the concentration for half-maximal inhibition (IC50) was 1 to 10 µM.

For `C[C@@H]1CC[C@H](NC(=O)C2(c3ccc(C(F)(F)F)cc3O)CC2)CN(c2nnn[nH]2)C1` [89D*, 1-(2-hydroxy-4-(trifluoromethyl)phenyl)-N-((3S,6R)-6-methyl-1-(1H-tetrazol-5-yl)azepan-3-yl)cyclopropane-1-carboxamide], the half-maximal inhibitory concentration (IC50) lay within 1 to 10 µM.

`C[C@@H]1CC[C@H](NC(=O)C2(c3ccc(Cl)cc3)CC2)CN(c2nnn[nH]2)C1` (single isomer, unassigned) [36D*, 1-(4-chlorophenyl)-N-(6-methyl-1-(1H-tetrazol-5-yl)azepan-3-yl)cyclopropane-1-carboxamide]: the concentration for half-maximal inhibition (IC50) was more than 100 µM.

In the case of `C[C@@H]1C[C@@H](NC(=O)C2(c3ccc(OC(F)F)cc3)CC2)[C@@H]2CC[C@H]1N2c1nnn[nH]1` (single isomer, unassigned) [35G*], the half-inhibitory concentration (IC50) was more than 100 µM.

Turning to `C[C@H]1C[C@@H](NC(=O)C2(c3ccc(OC(F)F)cc3F)CC2)[C@@H]2CC[C@H]1N2c1nnn[nH]1` (stereo in doubt) [101C*, 1-(4-(difluoromethoxy)-2-fluorophenyl)-N-(4-methyl-8-(1H-tetrazol-5-yl)-8-azabicyclo[3.2.1]octan-2-yl)cyclopropane-1-carboxamide], the 50% inhibitory concentration (IC50) is more than 100 µM.

Regarding `Cc1ccc(C2(C(=O)N[C@@H]3C[C@@H](C)CCN(c4nnn[nH]4)C3)CC2)cc1` (single isomer, unassigned) [71C*], the IC50 was 50 to 100 µM.

For the compound `C[C@H]1CCN(c2nnn[nH]2)C[C@@H](NC(=O)C2(c3ccc(C(F)(F)F)c(OC(F)F)c3)CC2)C1` (single isomer, unassigned) [54D*], the half-maximal inhibitory concentration (IC50) lay in the range of 10 to 50 µM.

With `C[C@@H]1CCN(c2nnn[nH]2)C[C@@H](NC(=O)C2(c3ccc(OC(F)(F)F)cc3)CC2)C1` (single isomer, unassigned) [57B*], the 50% inhibitory concentration (IC50) lay within 1 to 10 µM.

In the case of `C[C@H]1C[C@@H](NC(=O)C2(c3cnc(C(F)(F)F)cc3O)CC2)CN(c2nnn[nH]2)C1` [Compound 26A, 1-(4-hydroxy-6-(trifluoromethyl)pyridin-3-yl)-N-((3R,5S)-5-methyl-1-(1H-tetrazol-5-yl)piperidin-3-yl)cyclopropane-1-carboxamide], the IC50 lay within 1 to 10 µM.

Take `C[C@H]1CCN(c2nnn[nH]2)C[C@@H](NC(=O)C2(c3ccc(C(F)F)cc3)CC2)C1` (single isomer, unassigned) [5D*, 1-(4-(difluoromethyl)phenyl)-N-(5-methyl-1-(1H-tetrazol-5-yl)azepan-3-yl)cyclopropane-1-carboxamide]: the IC50 lay in the range of 10 to 50 µM.

For the compound `C[C@H]1CCN(c2nnn[nH]2)C[C@H](NC(=O)C2(c3cnc(Cl)cc3O)CC2)C1` (single isomer, unassigned) [99C*], the concentration for half-maximal inhibition (IC50) fell in the range of 50 to 100 µM.

Take `C[C@H]1CCN(c2nnn[nH]2)C[C@@H](NC(=O)C2(c3cc(F)c(C(F)(F)F)cc3F)CC2)C1` (single isomer, unassigned) [7D*, 1-(2,5-difluoro-4-(trifluoromethyl)phenyl)-N-(5-methyl-1-(1H-tetrazol-5-yl)azepan-3-yl)cyclopropane-1-carboxamide]: the IC50 fell in the range of 1 to 10 µM.

As for `C[C@H]1C[C@H](NC(=O)C2(c3ccc(OC(F)F)cc3)CC2)[C@H]2CC[C@@H]1N2c1nnn[nH]1` (single isomer, unassigned) [35F*], the concentration for half-maximal inhibition (IC50) is 50 to 100 µM.

For the compound `CC(C)c1ccc(C2(C(=O)N[C@@H]3C[C@@H](C)CCN(c4nnn[nH]4)C3)CC2)c(O)c1` (single isomer, unassigned) [27C*, 1-(2-hydroxy-4-isopropylphenyl)-N-(5-methyl-1-(1H-tetrazol-5-yl)azepan-3-yl)cyclopropane-1-carboxamide], the IC50 lay within 50 to 100 µM.

For `C[C@]1(NC(=O)C2(c3ccc(Cl)cc3)CC2)CCCN(c2nnn[nH]2)C1` (single isomer, unassigned) [11B*, 1-(4-chlorophenyl)-N-(3-methyl-1-(1H-tetrazol-5-yl)piperidin-3-yl)cyclopropane-1-carboxamide], the half-inhibitory concentration (IC50) was more than 100 µM.

`C[C@@H]1C[C@H](NC(=O)C2(c3ccc(OC(F)F)cc3)CC2)[C@@H]2CC[C@H]1N2c1nnn[nH]1` (single isomer, unassigned) [35H*]: the IC50 is more than 100 µM.

Take `C[C@@H]1C[C@H](NC(=O)C2(c3ccc(C4CC4)c(F)c3O)CC2)[C@H]2CC[C@@H]1N2c1nnn[nH]1` [83B*, 1-(4-cyclopropy1-3-fluoro-2-hydroxyphenyl)-N-((1R,2S,4R,5S)-4-methyl-8-(1H-tetrazol-5-yl)-8-azabicyclo[3.2.1]octan-2-yl)cyclopropane-1-carboxamide]: the half-maximal inhibitory concentration (IC50) was in the range of 10 to 50 µM.

With `CC(C)c1ccc(C2(C(=O)N[C@H]3C[C@H](C)CCN(c4nnn[nH]4)C3)CC2)c(O)c1` (single isomer, unassigned) [27B*, 1-(2-hydroxy-4-isopropylphenyl)-N-(5-methyl-1-(1H-tetrazol-5-yl)azepan-3-yl)cyclopropane-1-carboxamide], the half-maximal inhibitory concentration (IC50) was in the range of 1 to 10 µM.

With `C[C@@H]1CCN(c2nnn[nH]2)C[C@@H](NC(=O)C2(c3ccc(Br)cc3)CC2)C1` (single isomer, unassigned) [59B*], the IC50 was 1 to 10 µM.

Regarding `C[C@H]1CCN(c2nnn[nH]2)C[C@H](NC(=O)C2(c3ccc(Cl)cc3Cl)CC2)C1` (single isomer, unassigned) [55C*], the concentration for half-maximal inhibition (IC50) lay in the range of 50 to 100 µM.

Regarding `C[C@H]1CCN(c2nnn[nH]2)C[C@H](NC(=O)C2(c3ccc(C4CC4)cc3)CC2)C1` (single isomer, unassigned) [2C*], the IC50 was in the range of 10 to 50 µM.

Consider `Cc1ccc(C2(C(=O)N[C@H]3C[C@@H](C)[C@@H]4CC[C@H]3N4c3nnn[nH]3)CC2)cc1` [87B*, N-((1R,2S,4R,5S)-4-methy1-8-(1H-tetrazol-5-yl)-8-azabicyclo[3.2.1]octan-2-yl)-1-(p-tolyl)cyclopropane-1-carboxamide], for which the IC50 lay within 10 to 50 µM.

Turning to `C[C@H]1CCN(c2nnn[nH]2)C[C@H](NC(=O)C2(c3ccc(C(F)(F)F)c(OC(F)F)c3)CC2)C1` (single isomer, unassigned) [54C*], the half-inhibitory concentration (IC50) is more than 100 µM.

As to `C[C@@H]1CCN(c2nnn[nH]2)C[C@@H](NC(=O)C2(c3ccc(OC(F)F)c(F)c3)CC2)C1` (single isomer, unassigned) [73B*], the half-maximal inhibitory concentration (IC50) fell in the range of 1 to 10 µM.

Take `O=C(N[C@@H]1C[C@H](F)CN(c2nnn[nH]2)C1)C1(c2ccc(Cl)cc2)CC1` [Compound 44A, 1-(4-chlorophenyl)-N-[(3R,5S)-5-fluoro-1-(1H-tetrazol-5-yl)-3-piperidyl]cyclopropanecarboxamide]: the half-maximal inhibitory concentration (IC50) is more than 100 µM.

`C[C@@H]1CCN(c2nnn[nH]2)C[C@@H](NC(=O)C2(c3cnc(Cl)cc3O)CC2)C1` (single isomer, unassigned) [99B*]: the IC50 lay within 1 to 10 µM.

On to `Cc1ccc(C2(C(=O)N[C@H]3C[C@@H](C)CCN(c4nnn[nH]4)C3)CC2)cc1` (single isomer, unassigned) [71D*], for which the IC50 was 10 to 50 µM.

For the compound `C[C@@H]1CCN(c2nnn[nH]2)C[C@@H](NC(=O)C2(c3ccc(Cl)c(F)c3F)CC2)C1` (single isomer, unassigned) [4B*, 1-(4-chloro-2,3-difluorophenyl)-N-(5-methyl-1-(1H-tetrazol-5-yl)azepan-3-yl)cyclopropane-1-carboxamide], the half-maximal inhibitory concentration (IC50) is 10 to 50 µM.

With `C[C@@H]1C[C@H](NC(=O)C2(c3ccc(OC(F)F)cc3F)CC2)[C@H]2CC[C@@H]1N2c1nnn[nH]1` (stereo in doubt) [101B*, 1-(4-(difluoromethoxy)-2-fluorophenyl)-N-(4-methyl-8-(1H-tetrazol-5-yl)-8-azabicyclo[3.2.1]octan-2-yl)cyclopropane-1-carboxamide], the IC50 is more than 100 µM.

On to `C[C@H]1CCN(c2nnn[nH]2)C[C@H](NC(=O)C2(c3ccc(OC(F)F)cc3)CC2)C1` (single isomer, unassigned) [58C*], for which the IC50 was more than 100 µM.

Turning to `C[C@H]1CCN(c2nnn[nH]2)C[C@@H](NC(=O)C2(c3ccc(Cl)cc3)CC2)C1` (single isomer, unassigned) [12D*, 1-(4-chlorophenyl)-N-(5-methyl-1-(1H-tetrazol-5-yl)azepan-3-yl)cyclopropane-1-carboxamide], the IC50 was in the range of 10 to 50 µM.

As to `C[C@H]1C[C@H](NC(=O)C2(c3ccc(OC(F)F)cc3F)CC2)[C@@H]2CC[C@H]1N2c1nnn[nH]1` (stereo in doubt) [101D*, 1-(4-(difluoromethoxy)-2-fluorophenyl)-N-(4-methyl-8-(1H-tetrazol-5-yl)-8-azabicyclo[3.2.1]octan-2-yl)cyclopropane-1-carboxamide], the IC50 is 10 to 50 µM.

Staying with this experiment, now noted: read-out: SPA IC50.
With `Cn1nnc(-c2cccc(NC(=O)C3(c4ccc(Cl)cc4)CC3)c2)n1` [Comparative Example E2, 1-(4-chlorophenyl)-N-(3-(2-methyl-2H-tetrazol-5-yl)phenyl)cyclopropane-1-carboxamide, reference compound], the IC50 is more than 500 µM.
